This note sets out measurements from ChEMBL document CHEMBL1156314, “Synthesis and structure-activity relationships of antimalarial 4-oxo-3-carboxyl quinolones” (Bioorg Med Chem, 2010).

Data set [1] can be described thus: Membrane permeability at 10 uM at pH 4 by PAMPA method. It is filed as ADME. To be noted: read-out: permeability.
Another data set can be described thus: in vitro. To be noted: PAMPA, pH 7.4. A general note: In PAMPA a lipid-coated filter parts donor from acceptor wells.
The conditions of data set [2]: pampa, pH 7.4, 10 µM.

Turning to `CCOC(=O)c1cc2c(OC)cccc2nc1-c1ccc2c(c1)OCO2`, in data set [1], the Papp at 10 µM stood at 500 ×10⁻⁶ cm/s.

The compound `CCOC(=O)c1c(-c2cccc([N+](=O)[O-])c2)[nH]c2cccc(OC)c2c1=O` yielded a permeability at 10 µM in “in vitro” of 110 ×10⁻⁶ cm/s. For the compound `CCOC(=O)c1c(-c2ccc3c(c2)OCO3)nc2cc(OC)ccc2c1Cl`, the Papp at 10 µM in data set [1] was determined as 500 ×10⁻⁶ cm/s. With `CNC(=C[N+](=O)[O-])NCCSCc1ccc(CN(C)C)o1.Cl` [RANITIDINE HYDROCHLORIDE], the permeability in data set [2] is given as 1.2 10^-6 cm/s. With `NC(=O)N1c2ccccc2C=Cc2ccccc21` [CARBAMAZEPINE], the permeability in data set [2] is reported as 145 10^-6 cm/s.
